# Reference: patent publication US20180016289A1, “REDOX-SENSITIVE VESICLES” (THE ROYAL INSTITUTION FOR THE ADVANCEMENT OF …, priority 2015, published 2018)
# Test: Cyclic voltammetry (CV) in acetonitrile
# Type: physicochemical
# Settings: 0.1 M TBA-PF6, glassy carbon electrode, 50 mV.s^−1, Ag wire coated with AgCl reference, 1 mM
# Protocol: FIG. 6: Cyclic voltammetry (CV) measurements conducted in acetonitrile using 0.1 M of TBA-PF6 as the electrolyte. All the measurements were conducted at a scan rate of 50 mV.s^−1 using a glassy carbon (Ø=3 mm) electrode as a working electrode, Pt wire as a counter electrode and Ag wire coated with AgCl as a reference electrode. (A) Voltammogram of a 1 mM ferroceneacetic acid solution (B) voltammogram of a 1 mM phospholipid 2 solution. (C) Voltammogram of a 1 mM phospholipid 3 solution.
# FIG. 14: (A) Synthesis of Fc-DSP (3) from ferroceneacetic acid (1) and DSPE (2) using a detailed reaction and another graphical representation that are used in FIGS. 15-17 (B) CV measurements conducted in acetonitrile using 0.1 M of TBA-PF6 as the electrolyte. All measurements were conducted at a scan rate of 50 mV.s^−1 using a glassy carbon (Ø=3 mm) electrode as a working electrode, Pt wire as a counter electrode and Ag wire coated with AgCl as a reference electrode. (black) Voltammogram of a 1 mM phospholipid 2 solution. (red) Voltammogram of 1 mM phospholipid 3 solution.
# Cyclic voltammetry (CV) and scanning electrochemical microscopy (SECM) measurements were performed with an HEKA Electrochemical Probe Scanner 3 or Probe Scanner 1 (HEKA Elektronik Dr. Schulze GmbH, Germany). […]
substance,measurement,value
ferroceneacetic acid [compound 1],reversible oxidation reduction of the ferrocene (potential),0.42 V
